Legend:
WI-38 = experiment: Senolytic activity in ionizing radiation induced human WI-38 senescent cells by PI staining based flow cytometry analysis; format: functional, cell-based
[1] = Senolytic activity in non-senescent human WI-38 cells by PI staining based flow cytometry analysis; format: toxicity, cell-based; settings: non-senescent WI-38 cells
[2] = Selectivity ratio IC50 for non-senescent human WI-38 cells to IC50 for ionizing radiation induced human WI-38 senescent cells; format: functional

SMILES	IC50 (WI-38)	IC50 [1]	Ratio IC50 [2]
COc1cc(/C=C/C(=O)N2CCC=C(Cl)C2=O)cc(OC)c1OC	0.65 µM	5.3 µM	8.1
COc1cc(/C=C/C(=O)N2CCC=C(Br)C2=O)cc(OC)c1OC	0.52 µM	5.4 µM	10.4
CN(C)CCOc1ccc(/C=C/C(=O)N2CCCC=C(Cl)C2=O)cc1	2.4 µM	3 µM	1.3
COc1cc(/C=C/C(=O)N2CC(O)C=CC2=O)cc(OC)c1OC (stereo unspecified)	7.4 µM	11.3 µM	1.5
CN(C)C/C=C/C(=O)N1CCC=CC1=O	2.8 µM	9.7 µM	3.5
CN(C)CCOc1ccc(/C=C/C(=O)N2CCC=CC2=O)cc1	1.5 µM	19.5 µM	13.3
COc1cc(C#CC(=O)N2CCC=CC2=O)cc(OC)c1OC	4.4 µM	13.9 µM	3.2
O=C(C#Cc1ccccc1)N1CCC=CC1=O	0.93 µM	1.5 µM	1.6
COc1cc(/C=C/C(=O)N2CCC(=O)/C(=C/c3ccc(F)cc3F)C2)cc(OC)c1OC	14.7 µM	62.5 µM	4.2
COc1ccc(/C=C/C(=O)N2CCC=C(Br)C2=O)cc1	0.63 µM	1.1 µM	1.8
COc1cc(/C=C/C(=O)N2CCC(=O)/C(=C/c3ccc(F)cc3)C2)cc(OC)c1OC	14 µM	53.8 µM	3.9
COc1ccc(/C=C/C(=O)N2CCC=C(Cl)C2=O)cc1	0.51 µM	0.35 µM	0.7
CN(C)CCOc1ccc(/C=C/C(=O)N2CCC=C(Cl)C2=O)cc1	2.9 µM	4.4 µM	1.5
COc1cc(/C=C/C(=O)N2CCC=C(C(F)(F)F)C2=O)cc(OC)c1OC	> 40 µM	> 40 µM	–
COc1ccc(/C=C/C(=O)N2CCCC=C(Br)C2=O)cc1	1.3 µM	5.8 µM	4.4
COc1cc(/C=C/C(=O)N2CCC(=O)CC2)cc(OC)c1OC	> 40 µM	> 40 µM	–
COc1cc(/C=C/C(=O)N2CCC(N(C)C)CC2=O)cc(OC)c1OC (stereo unspecified)	10.2 µM	34.6 µM	3.4
COc1ccc(/C=C/C(=O)N2CCCC=C(Cl)C2=O)cc1	0.16 µM	1.5 µM	9.3
CN(C)CCOc1ccc(/C=C/C(=O)N2CCCC=C(Br)C2=O)cc1	2.9 µM	3.4 µM	1.2
COc1cc(/C=C/C(=O)N2OCC=CC2=O)cc(OC)c1OC	8.1 µM	48.9 µM	6
COc1cc(/C=C/C(=O)N2CCC=C(I)C2=O)cc(OC)c1OC	2.3 µM	16.3 µM	7.1
CN(C)CCOc1ccc(/C=C/C(=O)N2CCC=C(Br)C2=O)cc1	3.2 µM	4.8 µM	1.5
COc1cc(/C=C/C(=O)N2CCC=C(F)C2=O)cc(OC)c1OC	15.3 µM	12.1 µM	0.8
COc1cc(/C=C/C(=O)N2CCCC=C(Br)C2=O)cc(OC)c1OC	0.56 µM	3.6 µM	6.5
COc1cc(/C=C/C(=O)N2CCCC=C(Cl)C2=O)cc(OC)c1OC	0.45 µM	1.7 µM	3.7
COc1cc(/C=C/C(=O)N2CC=CCC2=O)cc(OC)c1OC	27.5 µM	> 80 µM	>2.9
COc1cc(/C=C/C(=O)N2C=CC=CCC2=O)cc(OC)c1OC	21.1 µM	26.7 µM	1.3
COc1cc(/C=C/C(=O)N2CCC=CC2=O)cc(OC)c1OC [PIPLARTINE]	–	20.3 µM	2.5
